Test results from US20250215042A1, “MANNOSE-TARGETED COMPOSITIONS” (GENEVANT SCIENCES GMBH, priority 2022, published 2025).
One block for each molecule: values may come before it.

Legend:
[1] = test system: M1 macrophages; experiment: D-mannose competition with Cy3-tetra-mannose-siCD45 uptake in M1 macrophages; format: cell-based, human; conditions: competitor 139 mM, 5 minutes before conjugate 5 μg/mL, 1 hour; FIG. 5
Description: OptiMEM containing D-mannose or D-galactose was added onto testing cells to reach the final concentration of 139 mM and incubated at 37° C. for 5 minutes. […] The cells were then washed with PBS 3 times and fixed with 4% PFA for 10 minutes at room temperature. The chambers were removed from the slides and the cells were mounted with one drop of mounting media containing DAPI staining for the nuclei. The slides were covered, sealed and analyzed under fluorescent microscope.

[2] = test system: human CD14+ monocyte derived M1 macrophages; experiment: Binding of biotin-mannose/AF488-streptavidin complex to M1 macrophages (flow cytometry); format: cell-based; conditions: for binding to M1 macrophages, tetra-, hexa- and octa-valent compared: FIG. 3; for mannose ligand conjugated fluorescence (ligand binding): M1 macrophages, complex at 0.5, 0.1 and 0.02 μM, 4° C., 1.5 hours
[3] = test system: human CD14+ monocyte derived M2 macrophages; experiment: Binding of biotin-mannose/AF488-streptavidin complex to M2 macrophages (flow cytometry); format: cell-based; conditions: FIG. 2; for mannose ligand conjugated fluorescence (ligand binding): M2 macrophages, complex at 0.5, 0.1 and 0.02 μM, 4° C., 1.5 hours

Compound: O=C[C@H](O)[C@@H](O)[C@@H](O)[C@H](O)CO [D-Galactose]
competitive inhibition of uptake of Cy3-tetra-mannose-siCD45 [1]: no competitive binding effect

Compound: O=C(CC[C@H](NC(=O)CC[C@H](NC(=O)CCCC[C@@H]1SC[C@@H]2NC(=O)N[C@@H]21)C(=O)N[C@@H](CCC(=O)NCC(=O)Nc1cc(C(=O)NCCOCCOCCO[C@H]2O[C@H](CO)[C@@H](O)[C@H](O)[C@@H]2O)cc(C(=O)NCCOCCOCCO[C@H]2O[C@H](CO)[C@@H](O)[C@H](O)[C@@H]2O)c1)C(=O)NCC(=O)Nc1cc(C(=O)NCCOCCOCCO[C@H]2O[C@H](CO)[C@@H](O)[C@H](O)[C@@H]2O)cc(C(=O)NCCOCCOCCO[C@H]2O[C@H](CO)[C@@H](O)[C@H](O)[C@@H]2O)c1)C(=O)NCC(=O)Nc1cc(C(=O)NCCOCCOCCO[C@H]2O[C@H](CO)[C@@H](O)[C@H](O)[C@@H]2O)cc(C(=O)NCCOCCOCCO[C@H]2O[C@H](CO)[C@@H](O)[C@H](O)[C@@H]2O)c1)NCC(=O)Nc1cc(C(=O)NCCOCCOCCO[C@H]2O[C@H](CO)[C@@H](O)[C@H](O)[C@@H]2O)cc(C(=O)NCCOCCOCCO[C@H]2O[C@H](CO)[C@@H](O)[C@H](O)[C@@H]2O)c1 [Compound 38]
binding to M1 macrophages, tetra-, hexa- and octa-valent compared [2]: did not show additional benefit

Compound: O=C[C@@H](O)[C@@H](O)[C@H](O)[C@H](O)CO [D-mannose]
competitive inhibition of uptake of Cy3-tetra-mannose-siCD45 [1]: substantially inhibited the uptake

Second part, led by results:

mannose ligand conjugated fluorescence (ligand binding) ([2]; FIG. 2): Dose dependent increase
mannose ligand conjugated fluorescence (ligand binding) [3]: Dose dependent increase
Compound: O=C(CCCC[C@@H]1SC[C@@H]2NC(=O)N[C@@H]21)NCC(=O)Nc1cc(C(=O)NCCOCCOCCO[C@H]2O[C@H](CO)[C@@H](O)[C@H](O)[C@@H]2O)cc(C(=O)NCCOCCOCCO[C@H]2O[C@H](CO)[C@@H](O)[C@H](O)[C@@H]2O)c1 [Compound 35]

mannose ligand conjugated fluorescence (ligand binding) ([2]; FIG. 2): Dose dependent increase
mannose ligand conjugated fluorescence (ligand binding) [3]: Dose dependent increase
Compound: O=C(CCCC[C@@H]1SC[C@@H]2NC(=O)N[C@@H]21)NCCCCCCOC1O[C@H](CO)[C@@H](O)[C@H](O)[C@@H]1O (stereo partly shown) [Compound 39]

binding affinity ranked by valency (mono-, di-, tetra-valent) ([2]; M1 cells, FIG. 2): highest binding affinity
mannose ligand conjugated fluorescence (ligand binding) ([2]; FIG. 2): Dose dependent increase
binding affinity ranked by valency (mono-, di-, tetra-valent) ([3]; M2 cells): highest binding affinity
mannose ligand conjugated fluorescence (ligand binding) [3]: Dose dependent increase
Compound: O=C(CC[C@H](NC(=O)CCCC[C@H]1SC[C@H]2NC(=O)N[C@H]21)C(=O)NCC(=O)Nc1cc(C(=O)NCCOCCOCCO[C@H]2O[C@H](CO)[C@@H](O)[C@H](O)[C@@H]2O)cc(C(=O)NCCOCCOCCO[C@H]2O[C@H](CO)[C@@H](O)[C@H](O)[C@@H]2O)c1)NCC(=O)Nc1cc(C(=O)NCCOCCOCCO[C@H]2O[C@H](CO)[C@@H](O)[C@H](O)[C@@H]2O)cc(C(=O)NCCOCCOCCO[C@H]2O[C@H](CO)[C@@H](O)[C@H](O)[C@@H]2O)c1 [Compound 36]

binding to M1 macrophages, tetra-, hexa- and octa-valent compared ([2]; listed as Hexavalent mannose ligand): further increased binding
Compound: O=C(CCC(CCC(=O)NCC(=O)Nc1cc(C(=O)NCCOCCOCCO[C@H]2O[C@H](CO)[C@@H](O)[C@H](O)[C@@H]2O)cc(C(=O)NCCOCCOCCO[C@H]2O[C@H](CO)[C@@H](O)[C@H](O)[C@@H]2O)c1)(CCC(=O)NCC(=O)Nc1cc(C(=O)NCCOCCOCCO[C@H]2O[C@H](CO)[C@@H](O)[C@H](O)[C@@H]2O)cc(C(=O)NCCOCCOCCO[C@H]2O[C@H](CO)[C@@H](O)[C@H](O)[C@@H]2O)c1)NC(=O)CCCC[C@H]1SC[C@@H]2NC(=O)N[C@@H]21)NCC(=O)Nc1cc(C(=O)NCCOCCOCCO[C@H]2O[C@H](CO)[C@@H](O)[C@H](O)[C@@H]2O)cc(C(=O)NCCOCCOCCO[C@H]2O[C@H](CO)[C@@H](O)[C@H](O)[C@@H]2O)c1 [Compound 37]
binding to M1 macrophages, tetra-, hexa- and octa-valent compared ([2]; listed as hexavalent mannose): highest binding affinity to M1 macrophages
